Experimental data as given in US20220347306A1, “SELECTIVE DELIVERY OF THERAPEUTIC AND IMAGING AGENTS” (priority 2018, published 2022).

Experiments:
[1] = Body weight (tolerability and toxicity) in human HT1080 fibrosarcoma xenograft model; details: 1 mg/kg of the cytotoxic agent component, IV on days 0 and 3
Protocol: (§1) Female athymic nude mice (8-10 weeks old) purchased from Charles River (Wilmington, 01887, MA) were used after 4-7 day of acclimatization period. […] Human fibrosarcoma tumor cells from ATCC (CCL-121™) were grown using standard cell culture techniques. Tumor cells (1×10^8 tumor cells/mL) were suspended in DPBS/Matrigel™ (1:1 vol) and implanted subcutaneously (50 μL tumor cell suspension/mouse) into the upper mammary fat pad or right flank of mice with individual identification number (ear tag). Four to seven days later when the average tumor volume was about 50-100 mm^3, mice were randomized into different experimental groups based on identical averaged (Mean±SEM) tumor volume and dosed with (i) vehicle and (ii) different doses of test compounds. For each involved tumor-bearing mouse, the tumor volume (mm^3) was measured using a caliper and calculated as follows: tumor volume=width^2×length/2. Test compounds were administered intravenously (tail vein) twice (two administrations 3 days apart) in conscious restrained tumor-bearing mice throughout the study. Individual tumor volume, body weight as well as clinical signs were recorded during the study. Each study was terminated on day 12 post-dosing initiation. […] For each experimental group and study day, the tumor volumes from all involved mice were averaged and expressed as Mean±SEM. […]

[2] = test system: HT1080 human fibrosarcoma subcutaneous tumor xenograft; assay: Human fibrosarcoma tumor xenograft therapeutic model, tumor growth; assay type: in vivo, athymic nude mice; details: dosed at 0.6 to 3.0 mg/kg of cytotoxic payload component, intravenously twice 3 days apart, evaluated day 9
Protocol: as §1

[3] = test system: HT1080 fibrosarcoma cells; assay: Cancer cell viability assay using human HT1080 fibrosarcoma cells; assay type: cell-based; details: four days incubation, reduction of viable cells, SDM as such
Protocol: Method: Plate cells one day prior to start of assay in 96 well black with clear bottom plates (Corning #3603), 2×10^4 cells per well in 100 μL of standard growth media (according to ATCC). Grow cells to 90% confluency.
Before start of assay rinse cells IX with DPBS. Add compounds in a 3-fold serial dilution in triplicate (range e.g. 8.1 μM-3.7 nM), 100 μL per well in standard growth media.
Incubate four days then assay cell viability as described below. Remove media and rinse IX with DPBS, then add 100 μL per well 10% Prestoblue Cell viability reagent (Thermo Fisher Scientific #A13261) in complete media. Return to incubator for two hours then read plate on SpectraMax M2e, bottom read excitation 555 emission 585 cut-off 570 which measures number of live cells. […] In most cases, SDMs were also tested in activated form by pre-treatment with protease that activates the compound. […] In Table 9 this is represented as ACT SDM-200.

Compound | Tolerability (FIG. 3B) [1] | Weight loss (body weight normalized to day 1, FIG. 3B) [1] [%] | Efficacy (percent tumor growth inhibition versus vehicle) [2] | EC50 [3] [µM]
[2H]C(=O)OCc1ccc(NC(=O)[C@H](CCCNC(N)=O)NC(=O)[C@@H](NC(=O)CCCCCN2C(=O)C=CC2=O)C(C)C)cc1 [SDM-155] | not tolerated | > 20 |  | 
[2H]CC(NC(=O)C(CCCNC(=N)N)NC(=O)[C@H](CCCNC(=N)N)NC(=O)[C@@H](CCCNC(=N)N)NC(=O)[C@H](CCCNC(=N)N)NC(=O)[C@@H](CCCNC(=N)N)NC(=O)[C@H](CCCNC(=N)N)NC(=O)[C@@H](CCCNC(=N)N)NC(=O)[C@H](CCCNC(=N)N)NC(=O)C(CO)NC(=O)[C@H](CCCNC(=N)N)NC(=O)[C@H](Cc1c[nH]c2ccccc12)NC(=O)C(CC(C)C)NC(=O)C(C)NC(=O)[C@H](CC(C)C)NC(=O)[C@@H]1CCCN1C(=O)[C@H](CCCNC(=N)N)NC(=O)COCCNC(=O)C(Cc1ccc(C(C)=O)cc1)NC(=O)[C@@H](CCC(=O)O)NC(=O)[C@@H](CCC(=O)O)NC(=O)[C@@H](CCC(=O)O)NC(=O)[C@@H](CCC(=O)O)NC(=O)[C@@H](CCC(=O)O)NC(=O)CCN1C(=O)C=CC1=O)C(N)=O (some centres unmarked) [SDM-173] |  |  | High (High: ≥80% inhibition) | 
CC[C@H](C)C([C@@H](CC(=O)N1CCCC1[C@H](OC)[C@@H](C)C(=O)N[C@@H](Cc1ccccc1)C(=O)O)OC)N(C)C(=O)[C@@H](NC(=O)[C@H](C(C)C)N(C)C(=O)CNC(=O)[C@H](CCCNC(N)=O)NC(=O)[C@@H](NC(=O)[C@H](Cc1ccc(/C(C)=N\OCCCCCC(=O)N[C@@H](CC(=O)O)C(=O)NC(CC2CCCCC2)C(=O)NC(Cc2ccccc2)C(=O)N[C@H](CO)C(=O)N[C@H](CCCNC(N)N)C(=O)N[C@@H](Cc2ccc(O)cc2)C(=O)N[C@@H](CC(C)C)C(=O)N[C@@H](Cc2c[nH]c3ccccc23)C(=O)N[C@@H](CO)C(N)=O)cc1)NC(=O)CCCCCN1C(=O)C=CC1=O)C(C)C)C(C)C (some centres unmarked) [SDM-185] |  |  | Medium (Medium: ≥29% inhibition to < 80% inhibition) | < 0.3
